Results as given in US20250312462A1, “PAK1 DEGRADERS AND METHODS OF USE THEREOF” (INSTITUTE FOR CANCER RESEARCH D/B/A THE RESEARCH INSTITUTE …, priority 2022, published 2025).

Legend:
[1] = molecular target: NDR1 (Homo sapiens, UniProt Q15208); experiment: KINOMEscan; conditions: read-out: Percent Control
Procedure: (§1) The kinase engagement assay (KINOMEscan®) was performed by DiscoverX assessing binding abilities toward a set of kinases.

[2] = molecular target: STK16 (Homo sapiens, UniProt O75716); experiment: KINOMEscan; conditions: read-out: Percent Control
Procedure: as §1

[3] = molecular target: KIT-autoinhibited (Homo sapiens, UniProt P10721); experiment: KINOMEscan; conditions: read-out: Percent Control
Procedure: as §1

[4] = molecular target: SRMS (Homo sapiens, UniProt Q9H3Y6); experiment: KINOMEscan; conditions: read-out: Percent Control
Procedure: as §1

[5] = molecular target: ERK3 (Homo sapiens, UniProt Q16659); experiment: KINOMEscan; conditions: read-out: Percent Control
Procedure: as §1

[6] = molecular target: NEK4 (Homo sapiens, UniProt P51957); experiment: KINOMEscan; conditions: read-out: Percent Control
Procedure: as §1

[7] = molecular target: PCTK2 (Homo sapiens, UniProt Q00537); experiment: KINOMEscan; conditions: read-out: Percent Control
Procedure: as §1

[8] = molecular target: TRKB (Homo sapiens, UniProt Q16620); experiment: KINOMEscan; conditions: read-out: Percent Control
Procedure: as §1

[9] = molecular target: CDKL5 (Homo sapiens, UniProt O76039); experiment: KINOMEscan; conditions: read-out: Percent Control
Procedure: as §1

[10] = molecular target: PLK3 (Homo sapiens, UniProt Q9H4B4); experiment: KINOMEscan; conditions: read-out: Percent Control
Procedure: as §1

[11] = molecular target: MEK4 (Homo sapiens, UniProt P45985); experiment: KINOMEscan; conditions: read-out: Percent Control
Procedure: as §1

[12] = molecular target: LKB1 (Homo sapiens, UniProt Q15831); experiment: KINOMEscan; conditions: read-out: Percent Control
Procedure: as §1

[13] = molecular target: IGF1R (Homo sapiens, UniProt P08069); experiment: KINOMEscan; conditions: read-out: Percent Control
Procedure: as §1

[14] = molecular target: JNK3 (Homo sapiens, UniProt P53779); experiment: KINOMEscan; conditions: read-out: Percent Control
Procedure: as §1

[15] = molecular target: PAK2 (Homo sapiens, UniProt Q13177); experiment: Z'-LYTE FRET kinase inhibition assay; type: biochemical; design: PAK2 (full length); purchased Invitrogen PV4565
Procedure: The activity/inhibition of human recombinant PAK1 (kinase domain) or PAK2 (full length) was determined by measuring the phosphorylation of a FRET peptide substrate (Ser/Thr19) labeled with Coumarin and Fluorescein using Z′-LYTE™ assay (Invitrogen). The 10 μL assay mixtures contained 50 mM HEPES (pH 7.5), 0.01% Brij-35, 10 mM MgCl2, 1 mM EGTA, 2 μM FRET peptide substrate, and PAK enzyme (20 pM PAK1; 50 pM PAK2). Incubations were carried out at 22° C. in black polypropylene 384-well plates (Corning Costar). Prior to the assay, enzyme, FRET peptide substrate and serially diluted test compounds were preincubated together in assay buffer (7.5 μL) for 10 minutes, and the assay was initiated by the addition of 2.5 μL assay buffer containing 4×ATP (160 μM PAK1; 480 μM PAK2). Following the 60-minute incubation, the assay mixtures were quenched by the addition of 5 μL of Z′-LYTE™ development reagent, and 1 hour later the emissions of Coumarin (445 nm) and Fluorescein (520 nm) were determined after excitation at 400 nm using an Envision plate reader (Perkin Elmer). […].

[16] = molecular target: CLK2 (Homo sapiens, UniProt P49760); experiment: KINOMEscan; conditions: read-out: Percent Control
Procedure: as §1

[17] = molecular target: ERBB3 (Homo sapiens, UniProt P21860); experiment: KINOMEscan; conditions: read-out: Percent Control
Procedure: as §1

[18] = molecular target: PRKR (Homo sapiens, UniProt P19525); experiment: KINOMEscan; conditions: read-out: Percent Control
Procedure: as §1

[19] = molecular target: RIPK2 (Homo sapiens, UniProt O43353); experiment: KINOMEscan; conditions: read-out: Percent Control
Procedure: as §1

[20] = molecular target: MINK (Homo sapiens, UniProt Q8N4C8); experiment: KINOMEscan; conditions: read-out: Percent Control
Procedure: as §1

[21] = molecular target: ABL1(F317L)-phosphorylated (Homo sapiens, UniProt P00519, F317L); experiment: KINOMEscan; conditions: read-out: Percent Control
Procedure: as §1

[22] = molecular target: HIPK2 (Homo sapiens, UniProt Q9H2X6); experiment: KINOMEscan; conditions: read-out: Percent Control
Procedure: as §1

[23] = molecular target: FLT3(K663Q) (Homo sapiens, UniProt P36888, K663Q); experiment: KINOMEscan; conditions: read-out: Percent Control
Procedure: as §1

[24] = molecular target: MRCKA (Homo sapiens, UniProt Q5VT25); experiment: KINOMEscan; conditions: read-out: Percent Control
Procedure: as §1

[25] = molecular target: EPHA4 (Homo sapiens, UniProt P54764); experiment: KINOMEscan; conditions: read-out: Percent Control
Procedure: as §1

[26] = molecular target: CAMKK1 (Homo sapiens, UniProt Q8N5S9); experiment: KINOMEscan; conditions: read-out: Percent Control
Procedure: as §1

[27] = molecular target: TRPM6 (Homo sapiens, UniProt Q9BX84); experiment: KINOMEscan; conditions: read-out: Percent Control
Procedure: as §1

[28] = molecular target: PIP5K2B (Homo sapiens, UniProt P78356); experiment: KINOMEscan; conditions: read-out: Percent Control
Procedure: as §1

[29] = molecular target: ABL2 (Homo sapiens, UniProt P42684); experiment: KINOMEscan; conditions: read-out: Percent Control
Procedure: as §1

[30] = molecular target: ABL1(F317I)-nonphosphorylated (Homo sapiens, UniProt P00519, F317I); experiment: KINOMEscan; conditions: read-out: Percent Control
Procedure: as §1

[31] = molecular target: PIK3CA(M1043I) (Homo sapiens, UniProt P42336, M1043I); experiment: KINOMEscan; conditions: read-out: Percent Control
Procedure: as §1

Chain of PAK2 (Q13177 whole entry, the tested form may be a part): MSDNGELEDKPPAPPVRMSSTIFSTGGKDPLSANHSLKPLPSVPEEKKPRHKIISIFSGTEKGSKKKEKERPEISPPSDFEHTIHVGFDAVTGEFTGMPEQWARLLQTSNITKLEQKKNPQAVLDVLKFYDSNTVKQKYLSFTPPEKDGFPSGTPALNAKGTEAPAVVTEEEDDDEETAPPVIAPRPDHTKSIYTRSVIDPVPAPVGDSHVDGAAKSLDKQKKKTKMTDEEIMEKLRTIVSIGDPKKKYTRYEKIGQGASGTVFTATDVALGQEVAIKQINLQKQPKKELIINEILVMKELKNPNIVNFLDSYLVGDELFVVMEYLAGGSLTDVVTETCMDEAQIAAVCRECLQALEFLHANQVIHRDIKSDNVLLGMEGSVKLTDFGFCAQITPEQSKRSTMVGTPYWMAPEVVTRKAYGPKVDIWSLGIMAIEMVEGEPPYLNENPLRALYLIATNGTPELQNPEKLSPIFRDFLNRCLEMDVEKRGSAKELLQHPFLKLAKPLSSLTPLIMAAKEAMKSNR
Chain of PLK3 (Q9H4B4 whole entry): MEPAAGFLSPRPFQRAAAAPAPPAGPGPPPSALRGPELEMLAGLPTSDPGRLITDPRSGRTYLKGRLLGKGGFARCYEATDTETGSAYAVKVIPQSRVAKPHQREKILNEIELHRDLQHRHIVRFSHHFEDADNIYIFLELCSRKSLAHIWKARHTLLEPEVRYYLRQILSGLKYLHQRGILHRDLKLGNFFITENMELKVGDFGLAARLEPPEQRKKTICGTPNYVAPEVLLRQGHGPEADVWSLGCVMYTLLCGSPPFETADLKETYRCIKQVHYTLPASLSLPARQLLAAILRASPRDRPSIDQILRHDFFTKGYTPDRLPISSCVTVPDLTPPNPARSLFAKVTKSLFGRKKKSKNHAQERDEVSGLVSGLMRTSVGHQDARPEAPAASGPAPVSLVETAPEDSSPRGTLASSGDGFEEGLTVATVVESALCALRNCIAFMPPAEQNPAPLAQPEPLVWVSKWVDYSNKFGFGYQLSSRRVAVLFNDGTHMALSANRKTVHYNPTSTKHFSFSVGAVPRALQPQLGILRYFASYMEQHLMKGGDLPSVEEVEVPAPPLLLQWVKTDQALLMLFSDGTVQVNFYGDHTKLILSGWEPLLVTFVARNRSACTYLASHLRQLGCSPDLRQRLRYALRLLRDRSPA
Chain of STK16 (O75716 whole entry): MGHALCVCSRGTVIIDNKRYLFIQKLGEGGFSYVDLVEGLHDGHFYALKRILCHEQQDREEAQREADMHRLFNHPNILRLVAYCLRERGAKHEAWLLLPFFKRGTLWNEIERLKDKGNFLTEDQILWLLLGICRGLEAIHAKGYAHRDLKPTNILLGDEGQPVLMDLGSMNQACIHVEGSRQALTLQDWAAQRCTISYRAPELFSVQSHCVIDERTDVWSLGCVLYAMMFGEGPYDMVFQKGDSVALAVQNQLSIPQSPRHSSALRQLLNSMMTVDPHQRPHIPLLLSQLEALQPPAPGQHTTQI
Chain of MINK (Q8N4C8 whole entry): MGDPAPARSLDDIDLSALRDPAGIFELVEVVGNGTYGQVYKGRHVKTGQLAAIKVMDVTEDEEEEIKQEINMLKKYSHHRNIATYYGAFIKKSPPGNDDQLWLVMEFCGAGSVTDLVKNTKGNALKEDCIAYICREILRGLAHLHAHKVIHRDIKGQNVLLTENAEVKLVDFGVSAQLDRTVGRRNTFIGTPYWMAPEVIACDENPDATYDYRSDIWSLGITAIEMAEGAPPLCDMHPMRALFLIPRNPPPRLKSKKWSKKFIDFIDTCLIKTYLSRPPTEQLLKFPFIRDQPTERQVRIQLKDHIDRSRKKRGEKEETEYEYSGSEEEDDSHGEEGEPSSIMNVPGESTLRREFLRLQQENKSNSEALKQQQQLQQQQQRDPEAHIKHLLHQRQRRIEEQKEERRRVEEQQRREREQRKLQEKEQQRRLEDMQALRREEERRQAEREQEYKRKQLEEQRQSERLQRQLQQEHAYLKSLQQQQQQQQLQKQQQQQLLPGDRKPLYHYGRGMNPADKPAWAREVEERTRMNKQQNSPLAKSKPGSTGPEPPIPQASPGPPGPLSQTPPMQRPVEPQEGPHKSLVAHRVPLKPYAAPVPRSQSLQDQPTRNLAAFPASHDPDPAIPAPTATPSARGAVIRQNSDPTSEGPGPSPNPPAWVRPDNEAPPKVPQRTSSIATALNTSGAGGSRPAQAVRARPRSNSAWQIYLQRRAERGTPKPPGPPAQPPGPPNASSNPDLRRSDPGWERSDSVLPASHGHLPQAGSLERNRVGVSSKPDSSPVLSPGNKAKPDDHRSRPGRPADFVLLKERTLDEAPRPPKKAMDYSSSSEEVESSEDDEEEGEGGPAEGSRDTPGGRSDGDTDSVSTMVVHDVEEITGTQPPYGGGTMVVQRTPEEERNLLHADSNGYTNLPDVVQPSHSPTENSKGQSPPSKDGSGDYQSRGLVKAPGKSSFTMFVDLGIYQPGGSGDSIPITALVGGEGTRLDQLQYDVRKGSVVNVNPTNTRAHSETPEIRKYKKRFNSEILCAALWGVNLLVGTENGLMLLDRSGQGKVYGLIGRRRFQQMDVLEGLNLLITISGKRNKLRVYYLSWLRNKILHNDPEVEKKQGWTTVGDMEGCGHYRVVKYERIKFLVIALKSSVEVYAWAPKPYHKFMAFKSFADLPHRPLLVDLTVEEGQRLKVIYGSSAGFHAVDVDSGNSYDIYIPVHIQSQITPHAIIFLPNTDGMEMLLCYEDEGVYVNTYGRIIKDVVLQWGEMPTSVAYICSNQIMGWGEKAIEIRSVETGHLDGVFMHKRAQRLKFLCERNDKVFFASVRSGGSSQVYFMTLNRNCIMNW
Chain of NDR1 (Q15208 whole entry): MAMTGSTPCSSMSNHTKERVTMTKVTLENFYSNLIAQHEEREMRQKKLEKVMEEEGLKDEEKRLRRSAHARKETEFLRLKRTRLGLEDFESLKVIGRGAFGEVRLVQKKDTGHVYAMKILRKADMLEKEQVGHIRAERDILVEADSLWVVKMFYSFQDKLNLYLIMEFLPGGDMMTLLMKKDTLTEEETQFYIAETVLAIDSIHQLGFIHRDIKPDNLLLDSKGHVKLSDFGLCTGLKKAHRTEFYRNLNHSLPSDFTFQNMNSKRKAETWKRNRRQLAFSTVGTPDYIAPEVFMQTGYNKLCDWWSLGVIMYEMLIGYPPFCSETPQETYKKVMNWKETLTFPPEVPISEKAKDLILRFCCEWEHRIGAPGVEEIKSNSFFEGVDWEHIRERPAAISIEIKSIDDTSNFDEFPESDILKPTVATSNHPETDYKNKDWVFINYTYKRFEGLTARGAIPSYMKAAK
Chain of RIPK2 (O43353 whole entry): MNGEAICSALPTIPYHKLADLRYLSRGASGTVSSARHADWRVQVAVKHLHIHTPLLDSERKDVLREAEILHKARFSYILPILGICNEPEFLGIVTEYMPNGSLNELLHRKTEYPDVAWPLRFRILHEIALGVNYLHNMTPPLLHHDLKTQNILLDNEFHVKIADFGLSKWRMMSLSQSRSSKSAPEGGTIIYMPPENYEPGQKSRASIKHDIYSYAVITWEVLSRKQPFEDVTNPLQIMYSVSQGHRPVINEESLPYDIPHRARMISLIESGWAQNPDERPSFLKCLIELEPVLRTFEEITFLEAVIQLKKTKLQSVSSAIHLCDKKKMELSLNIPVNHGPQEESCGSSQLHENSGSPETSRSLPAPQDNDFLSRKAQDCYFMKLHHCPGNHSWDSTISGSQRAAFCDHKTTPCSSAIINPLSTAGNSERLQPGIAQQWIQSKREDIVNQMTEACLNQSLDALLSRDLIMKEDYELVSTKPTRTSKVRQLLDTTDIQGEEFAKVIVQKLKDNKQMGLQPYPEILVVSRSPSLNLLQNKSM
Chain of ABL1(F317L)-phosphorylated (P00519 whole entry F317L): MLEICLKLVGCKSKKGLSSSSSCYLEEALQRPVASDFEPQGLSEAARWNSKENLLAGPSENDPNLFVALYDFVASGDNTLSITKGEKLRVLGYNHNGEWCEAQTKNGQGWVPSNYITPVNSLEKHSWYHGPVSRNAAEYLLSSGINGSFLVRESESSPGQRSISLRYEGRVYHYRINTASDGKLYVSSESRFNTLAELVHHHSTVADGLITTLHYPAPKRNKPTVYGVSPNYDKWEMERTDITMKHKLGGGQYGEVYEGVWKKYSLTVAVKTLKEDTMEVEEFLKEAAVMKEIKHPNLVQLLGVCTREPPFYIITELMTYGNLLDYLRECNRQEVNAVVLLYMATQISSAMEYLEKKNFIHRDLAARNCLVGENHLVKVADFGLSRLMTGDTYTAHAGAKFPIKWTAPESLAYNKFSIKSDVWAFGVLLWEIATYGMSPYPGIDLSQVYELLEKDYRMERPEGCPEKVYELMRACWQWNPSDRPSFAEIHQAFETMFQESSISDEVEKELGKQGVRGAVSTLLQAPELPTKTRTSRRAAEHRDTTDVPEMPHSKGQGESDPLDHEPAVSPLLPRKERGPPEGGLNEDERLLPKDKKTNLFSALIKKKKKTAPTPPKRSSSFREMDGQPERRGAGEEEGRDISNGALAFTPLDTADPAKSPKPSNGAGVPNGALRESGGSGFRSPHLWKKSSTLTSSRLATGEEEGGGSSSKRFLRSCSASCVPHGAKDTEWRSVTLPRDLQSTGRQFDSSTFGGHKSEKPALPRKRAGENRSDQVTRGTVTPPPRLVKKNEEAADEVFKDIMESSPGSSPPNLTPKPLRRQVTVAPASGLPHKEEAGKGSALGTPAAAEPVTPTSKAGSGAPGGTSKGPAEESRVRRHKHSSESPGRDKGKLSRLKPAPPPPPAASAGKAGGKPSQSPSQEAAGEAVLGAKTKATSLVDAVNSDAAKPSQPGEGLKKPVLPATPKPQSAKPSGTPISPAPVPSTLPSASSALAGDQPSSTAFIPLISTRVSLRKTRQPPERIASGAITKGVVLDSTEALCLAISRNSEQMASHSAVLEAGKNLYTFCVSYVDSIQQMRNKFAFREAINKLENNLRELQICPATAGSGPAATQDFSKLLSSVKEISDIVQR
Chain of ABL1(F317I)-nonphosphorylated (P00519 whole entry F317I): as the sequence (P00519 whole entry F317L) above, with L317I counted along it

## O=C1CCC(N2C(=O)c3cccc(NCCCCCCCCNC(=O)N4CC[C@H](NC5=Nc6cc(F)ccc6N(CC(F)F)c6ccc(Cl)cc65)C4)c3C2=O)C(=O)N1 (stereo partly drawn) [BJG-05-039, (3S)-3-((2-Chloro-5-(2,2-difluoroethyl)-8-fluoro-5H-dibenzo[b,e][1,4]diazepin-11-yl)amino)-N-(8-((2-(2,6-dioxopiperidin-3-yl)-1,3-dioxoisoindolin-4-yl)amino)octyl)pyrrolidine-1-carboxamide]
[1]
  remaining binding at 10 µM: 86%
[2]
  remaining binding at 10 µM: 62%
[3]
  remaining binding at 10 µM: 100%
[4]
  remaining binding at 10 µM: 97%
[5]
  remaining binding at 10 µM: 64%
[6]
  remaining binding at 10 µM: 99%
[7]
  remaining binding at 10 µM: 58%
[8]
  remaining binding at 10 µM: 67%
[9]
  remaining binding at 10 µM: 100%
[10]
  remaining binding at 10 µM: 99%
[11]
  remaining binding at 10 µM: 85%
[12]
  remaining binding at 10 µM: 89%
[13]
  remaining binding at 10 µM: 70%
[14]
  remaining binding at 10 µM: 88%
[15]
  IC50: > 10 µM
[16]
  remaining binding at 10 µM: 95%
[17]
  remaining binding at 10 µM: 59%
[18]
  remaining binding at 10 µM: 81%
[19]
  remaining binding at 10 µM: 67%
[20]
  remaining binding at 10 µM: 100%
[21]
  remaining binding at 10 µM: 100%
[22]
  remaining binding at 10 µM: 100%
[23]
  remaining binding at 10 µM: 59%
[24]
  remaining binding at 10 µM: 63%
[25]
  remaining binding at 10 µM: 82%
[26]
  remaining binding at 10 µM: 52%
[27]
  remaining binding at 10 µM: 94%
[28]
  remaining binding at 10 µM: 100%
[29]
  remaining binding at 10 µM: 94%
[30]
  remaining binding at 10 µM: 91%
[31]
  remaining binding at 10 µM: 100%
